From publication PMC12190436, “5-Ene-2-arylaminothiazol-4(5H)-ones Induce Apoptosis in Breast Cancer Cells” (Cells, 2025)

How the values were obtained:
Assay type in all cases: cell-based
Colon Cancer = test system: Colon Cancer
Leukemia = test system: Leukemia
MOLT-4 = test system: MOLT-4
RPMI-8226 = test system: RPMI-8226
NCI/ADR-RES = test system: NCI/ADR-RES
SK-MEL-2 = test system: SK-MEL-2
HOP-62 = test system: HOP-62
Prostate Cancer = test system: Prostate Cancer
M14 = test system: M14
SNB-75 = test system: SNB-75
PC-3 = test system: PC-3
K-562 = test system: K-562
KM12 = test system: KM12
786-0 = test system: 786-0
COLO 205 = test system: COLO 205
HCT-15 = test system: HCT-15
DU-145 = test system: DU-145
CNS Cancer = test system: CNS Cancer
RXF 393 = test system: RXF 393
NCI-H23 = test system: NCI-H23
CAKI-1 = test system: CAKI-1
[1] = test system: Non-small Cell Lung Cancer
SK-MEL-28 = test system: SK-MEL-28
OVCAR-3 = test system: OVCAR-3
LOX IMVI = settings: MG_MID_60/value
OVCAR-8 = test system: OVCAR-8

In the case of `COc1cc(NC2=NC(=O)C(=Cc3c[nH]c4ccccc34)S2)cc(OC)c1OC` [Les-6418, 5-((1H-Indol-3-yl)methylene)-2-((3,4,5-trimethoxyphenyl)amino)thiazol-4(5H)-one], the “MG_MID TGI” value (Colon Cancer; Colon Cancer subpanel mean) is reported as 15.5 µM, the “SI (MG_MID TGI)” value (Colon Cancer; Colon Cancer subpanel, MG_MID_60/value) is reported as 1.20 and the GI50 (Colon Cancer; Homo sapiens, Colon Cancer subpanel mean, read-out: MG_MID GI50) is reported as 2.48 µM. It also gave a CC50 (Colon Cancer; Homo sapiens, Colon Cancer subpanel mean, read-out: MG_MID LC50) of 55.6 µM, a GI50 (Leukemia; Homo sapiens, Leukemia subpanel mean, read-out: MG_MID GI50) of 2.04 µM and a CC50 (Leukemia; Homo sapiens, Leukemia subpanel mean, read-out: MG_MID LC50) of over 100 µM. For the same compound, the “MG_MID TGI” value (Leukemia; Leukemia subpanel mean) was 49.7 µM, the “SI (MG_MID TGI)” value (Leukemia; Leukemia subpanel, MG_MID_60/value) was 0.37 and the GI50 (MOLT-4; Homo sapiens, MOLT-4, 48 h) was 2.63 µM. For the same compound, the CC50 (MOLT-4; Homo sapiens, MOLT-4, 48 h, read-out: LC50 (the source's name)) was over 100 µM, the TGI (MOLT-4; MOLT-4, 48 h) was 26.0 µM and the “SI (GI50)” value (MOLT-4; MOLT-4, MG_MID_60/value) was 1.24. The “SI (TGI)” value (MOLT-4; MOLT-4, MG_MID_60/value) was 0.72, the GI50 (RPMI-8226; Homo sapiens, RPMI-8226, 48 h) was 5.73 µM and the CC50 (RPMI-8226; Homo sapiens, RPMI-8226, 48 h, read-out: LC50 (the source's name)) was over 100 µM. For the same compound, the TGI (RPMI-8226; RPMI-8226, 48 h) was over 100 µM, the “SI (TGI)” value (RPMI-8226; RPMI-8226, MG_MID_60/value) was 0.19 and the TGI (NCI/ADR-RES; 48 h) was 24.2 µM. The GI50 (NCI/ADR-RES; Homo sapiens, 48 h) was 6.24 µM, the CC50 (NCI/ADR-RES; Homo sapiens, 48 h, read-out: LC50 (the source's name)) was 74.2 µM and the “SI (TGI)” value (NCI/ADR-RES; MG_MID_60/value) was 0.77. The GI50 (SK-MEL-2; Homo sapiens, SK-MEL-2, 48 h) was 1.45 µM, the CC50 (SK-MEL-2; Homo sapiens, SK-MEL-2, 48 h, read-out: LC50 (the source's name)) was 43.1 µM and the TGI (SK-MEL-2; SK-MEL-2, 48 h) was 12.2 µM. For the same compound, the “SI (TGI)” value (SK-MEL-2; SK-MEL-2, MG_MID_60/value) was 1.52, the TGI (HOP-62; HOP-62, 48 h) was 15.7 µM and the “SI (TGI)” value (HOP-62; HOP-62, MG_MID_60/value) was 1.18. The GI50 (HOP-62; Homo sapiens, HOP-62, 48 h) was 2.69 µM, the LC50 (HOP-62; Homo sapiens, HOP-62, 48 h) was 65.9 µM and the GI50 (Prostate Cancer; Homo sapiens, Prostate Cancer subpanel mean, read-out: MG_MID GI50) was 3.61 µM. For the same compound, the CC50 (Prostate Cancer; Homo sapiens, Prostate Cancer subpanel mean, read-out: MG_MID LC50) was 70.8 µM, the “MG_MID TGI” value (Prostate Cancer; Prostate Cancer subpanel mean) was 19.9 µM and the “SI (MG_MID TGI)” value (Prostate Cancer; Prostate Cancer subpanel, MG_MID_60/value) was 0.93. It also gave a GI50 (M14; Homo sapiens, M14, 48 h) of 2.02 µM, a CC50 (M14; Homo sapiens, M14, 48 h, read-out: LC50 (the source's name)) of 55.6 µM and a TGI (M14; M14, 48 h) of 15.9 µM. The “SI (TGI)” value (M14; M14, MG_MID_60/value) was 1.17, the GI50 (SNB-75; Homo sapiens, SNB-75, 48 h) was 1.24 µM and the CC50 (SNB-75; Homo sapiens, SNB-75, 48 h, read-out: LC50 (the source's name)) was 11.9 µM. The TGI (SNB-75; SNB-75, 48 h) was 3.63 µM, the “SI (TGI)” value (SNB-75; SNB-75, MG_MID_60/value) was 5.12 and the GI50 (PC-3; Homo sapiens, PC-3, 48 h) was 2.59 µM. The CC50 (PC-3; Homo sapiens, PC-3, 48 h, read-out: LC50 (the source's name)) was 94.2 µM, the TGI (PC-3; PC-3, 48 h) was 22.6 µM and the “SI (TGI)” value (PC-3; PC-3, MG_MID_60/value) was 0.82. The GI50 (K-562; Homo sapiens, K562, K-562, 48 h) was 0.526 µM, the CC50 (K-562; Homo sapiens, K562, K-562, 48 h, read-out: LC50 (the source's name)) was over 100 µM and the TGI (K-562; K-562, 48 h) was 31.1 µM. The “SI (TGI)” value (K-562; K-562, MG_MID_60/value) was 0.60, the GI50 (KM12; Homo sapiens, KM12, 48 h) was 0.977 µM and the CC50 (KM12; Homo sapiens, KM12, 48 h, read-out: LC50 (the source's name)) was 70.7 µM. The TGI (KM12; KM12, 48 h) was 16.8 µM, the “SI (TGI)” value (KM12; KM12, MG_MID_60/value) was 1.11 and the Growth % (786-0; 786-0, 10 μM, one dose, 48 h) was −73.06%. The TGI (786-0; 786-0, 48 h) was 11.9 µM, the “SI (TGI)” value (786-0; 786-0, MG_MID_60/value) was 1.56 and the GI50 (786-0; Homo sapiens, 786-0, 48 h) was 2.72 µM. For the same compound, the CC50 (786-0; Homo sapiens, 786-0, 48 h, read-out: LC50 (the source's name)) was 55.7 µM, the TGI (COLO 205; COLO 205, 48 h) was 16.4 µM and the “SI (TGI)” value (COLO 205; COLO 205, MG_MID_60/value) was 1.13. For the same compound, the GI50 (COLO 205; Homo sapiens, COLO 205, 48 h) was 3.14 µM, the CC50 (COLO 205; Homo sapiens, COLO 205, 48 h, read-out: LC50 (the source's name)) was 49.6 µM and the TGI (HCT-15; HCT-15, 48 h) was 12.4 µM. For the same compound, the “SI (TGI)” value (HCT-15; HCT-15, MG_MID_60/value) was 1.50, the GI50 (HCT-15; Homo sapiens, HCT-15, 48 h) was 1.79 µM and the CC50 (HCT-15; Homo sapiens, HCT-15, 48 h, read-out: LC50 (the source's name)) was 37.7 µM. The TGI (DU-145; DU-145, 48 h) was 17.2 µM, the “SI (TGI)” value (DU-145; DU-145, MG_MID_60/value) was 1.08 and the GI50 (DU-145; Homo sapiens, DU-145, 48 h) was 4.63 µM. The CC50 (DU-145; Homo sapiens, DU-145, 48 h, read-out: LC50 (the source's name)) was 47.4 µM, the “MG_MID TGI” value (CNS Cancer; CNS Cancer subpanel mean) was 14.0 µM and the “SI (MG_MID TGI)” value (CNS Cancer; CNS Cancer subpanel, MG_MID_60/value) was 1.33. The GI50 (CNS Cancer; Homo sapiens, CNS Cancer subpanel mean, read-out: MG_MID GI50) was 3.24 µM, the CC50 (CNS Cancer; Homo sapiens, CNS Cancer subpanel mean, read-out: MG_MID LC50) was 46.1 µM and the GI50 (RXF 393; Homo sapiens, RXF 393, 48 h) was 1 µM. The CC50 (RXF 393; Homo sapiens, RXF 393, 48 h, read-out: LC50 (the source's name)) was 34 µM, the TGI (RXF 393; RXF 393, 48 h) was 5.80 µM and the “SI (TGI)” value (RXF 393; RXF 393, MG_MID_60/value) was 3.21. It also gave a GI50 (NCI-H23; Homo sapiens, NCI-H23, 48 h) of 5.33 µM, a CC50 (NCI-H23; Homo sapiens, NCI-H23, 48 h, read-out: LC50 (the source's name)) of 54 µM and a TGI (NCI-H23; NCI-H23, 48 h) of 21.1 µM. The “SI (TGI)” value (NCI-H23; NCI-H23, MG_MID_60/value) was 0.88, the TGI (CAKI-1; CAKI-1, 48 h) was 10.3 µM and the “SI (TGI)” value (CAKI-1; CAKI-1, MG_MID_60/value) was 1.81. It also gave a GI50 (CAKI-1; Homo sapiens, CAKI-1, 48 h) of 0.84 µM, a CC50 (CAKI-1; Homo sapiens, CAKI-1, 48 h, read-out: LC50 (the source's name)) of 33.1 µM and a GI50 ([1]; Homo sapiens, Non-small Cell Lung Cancer subpanel mean, read-out: MG_MID GI50) of 3.66 µM. The CC50 ([1]; Homo sapiens, Non-small Cell Lung Cancer subpanel mean, read-out: MG_MID LC50) was 61.1 µM, the “MG_MID TGI” value ([1]; Non-small Cell Lung Cancer subpanel mean) was 15.6 µM and the “SI (MG_MID TGI)” value ([1]; Non-small Cell Lung Cancer subpanel, MG_MID_60/value) was 1.19. The GI50 (SK-MEL-28; Homo sapiens, SK-MEL-28, 48 h) was 6.07 µM, the CC50 (SK-MEL-28; Homo sapiens, SK-MEL-28, 48 h, read-out: LC50 (the source's name)) was 49.9 µM and the TGI (SK-MEL-28; SK-MEL-28, 48 h) was 21.0 µM. The “SI (TGI)” value (SK-MEL-28; SK-MEL-28, MG_MID_60/value) was 0.89, the GI50 (OVCAR-3; Homo sapiens, OVCAR-3, 48 h) was 0.517 µM and the CC50 (OVCAR-3; Homo sapiens, OVCAR-3, 48 h, read-out: LC50 (the source's name)) was 34 µM. The Growth % (OVCAR-3; OVCAR-3, 10 μM, one dose, 48 h) was 76.96%, the TGI (OVCAR-3; OVCAR-3, 48 h) was 5.32 µM and the “SI (TGI)” value (OVCAR-3; OVCAR-3, MG_MID_60/value) was 3.50. For the same compound, the “SI (TGI)” value (LOX IMVI) was 1.34, the GI50 (OVCAR-8; Homo sapiens, OVCAR-8, 48 h) was 10.6 µM and the LC50 (50% lethal concentration) (OVCAR-8; Homo sapiens, OVCAR-8, 48 h) was 70.1 µM. The TGI (OVCAR-8; OVCAR-8, 48 h) was 27.2 µM and the “SI (TGI)” value (OVCAR-8; OVCAR-8, MG_MID_60/value) was 0.68.
